In patent US11576875B2 (priority 2017, dated 2023):
“Also recorded” adds a separate entry of the source.

Key:
[1] = system: mouse myoblast cell line (C2C12 cells); experiment: Thickness of myotubes differentiated from mouse myoblasts, muscle reduction induced by dexamethasone; assay type: cell-based
Method: First, differentiation of myotubes from mouse myoblasts was induced. A mouse myoblast cell line (C2C12 cells) was purchased from ATCC (Manassas, Va., USA) and used. The purchased cells were inoculated in 10% fetal bovine serum media (Gibco-BRL) and incubated in a 5% CO2 incubator at 37° C. When the confluency of the cells attached to the media became 80% or higher, the cells were transferred to 2% horse serum media (Gibco-BRL) to differentiate myoblasts into myotubes.
For two days (48 hours) from day 4 after differentiation into myotubes started to be induced, the media were treated with 50 μM dexamethasone (dexa; Sigma Aldrich, USA) to induce muscle reduction. […] As a non-treated control, cells treated with only dexamethasone and not treated with ethyl vanillin were used.
After completion of the incubation, the cells were washed twice with phosphate buffered saline (PBS), and then fixed by treatment with 100% methanol for 10 minutes. […]
The stained myotubes were photographed using a fluorescence microscope (IX 71, Olympus) at a magnification of 10×, and then analyzed using image J software (USA). Six sections were randomly selected from each well and micrographed, and the thickness of at least 100 myotubes from each well was analyzed (three repetitions/group).

[2] = cited from earlier work
[3] = system: animal model with high-fat-diet-induced muscle loss; experiment: Four limb hanging test in mice fed a high-fat diet; assay type: in vivo, C57BL/6N mice; conditions: 0.2% ethyl vanillin in high-fat diet, week 10
Method: A normal diet group (Chow) was fed commercial rodent chow. Ethyl vanillin was purchased from Sigma-Aldrich. [table] To measure the limb muscle strength of mice, the time that the mice hung upside down using their four feet was measured at week 10 of breeding. The time (seconds) that the mice hung upside down in a cage equipped with a wire mesh cover (diameter<0.5 cm) (20×30×50 cm, Jeung-Do Bio & Plant Co., Ltd, Korea) was measured a total of three times, and a rest period of 30 minutes or longer was given between measurements. Experimental results were obtained by multiplying hanging time (sec) by body weight (kg). The statistical analysis of all data was performed using the Statistical Package for the Social Sciences (SPSS version 21.0, IBM, Armonk, N.Y., USA), and analysis values were expressed as mean±SEM, and a significant difference between groups was verified by ANOVA.

[4] = system: animal model with high-fat-diet-induced muscle loss; experiment: Fiber diameter of tibialis anterior muscle tissue (H&E staining); assay type: in vivo, C57BL/6N mice; conditions: 0.2% ethyl vanillin in high-fat diet, 10 weeks
Method: A normal diet group (Chow) was fed commercial rodent chow. Ethyl vanillin was purchased from Sigma-Aldrich. [table] Muscle tissues of mice were extracted, fixed in 10% formalin, and then stained with hematoxylin and eosin (H&E) after requesting Korea CFC (Gyeonggi-do, Korea) to do so, and observed using an optical microscope (IX71, Olympus, JPN) and photographed using a digital camera (DP71, Olympus, JPN). The statistical analysis of all data was performed using the Statistical Package for the Social Sciences (SPSS version 21.0, IBM, Armonk, N.Y., USA), and analysis values were expressed as mean±SEM, and a significant difference between groups was verified by ANOVA.

MaFbx/atrogin 1 = experiment: mRNA expression level by RT-PCR in myotubes; assay type: cell-based, mouse; conditions: ethyl vanillin with dexamethasone vs dexamethasone control
Method: (§1) After completing the incubation of all experimental groups and the control, cells of each group were obtained, 334 μl of a TRIzol solution per 1×10^7 myotubes was added and replaced, followed by centrifugation at 12,000×g and 4° C. for 10 minutes. Thereafter, the supernatant was transferred to a new tube and 67 μl of chloroform was added thereto, followed by mixing by vortexing. The supernatant in the mixed solution was transferred again to a new tube, and isopropanol was added thereto in a ratio of 1:1 (v:v) of isopropanol to supernatant, followed by vigorous shaking about 10 times and being left at room temperature for 15 minutes. Once again, centrifugation was carried out at 12,000×g and 4° C. for 10 minutes to remove a supernatant, and 1 ml of 70% ethanol was added to the precipitate, followed by centrifugation at 7,500×g and 4° C. for 5 minutes to remove the ethanol, and the tubes were dried at room temperature for 15 minutes. Finally, precipitated RNA was dissolved in nuclease free water to obtain RNA extracted from the cells. The concentration of RNA was identified by measuring absorbance at wavelengths of 260 nm and 280 nm using a UV/VIS spectrometer, and was subjected to electrophoresis to confirm the integrity of RNA samples.
(§2) Reverse transcription-polymerase chain reaction (RT-PCR) was performed using the prepared RNA samples. The obtained RNA samples were used as templates and reverse transcription was performed using oligo dT primers and SuperScript Reverse Transcriptase (GIBCO BRL, Gaithersburg, Md., USA) to synthesize cDNA. The synthesized cDNA was used as a template and PCR was performed using primer pairs (forward primers and reverse primers) shown in Table 1 below. Each primer was constructed based on the 5′ and 3′ flanking sequence of cDNA of the template gene to be amplified. After PCR was completed, 1 μl of each amplified PCR product was subjected to electrophoresis on agarose gel to confirm generated DNA bands.

MuRF1 = experiment: mRNA expression level by RT-PCR in myotubes; assay type: cell-based, mouse; conditions: ethyl vanillin with dexamethasone vs dexamethasone control
Method: as §1, §2

Myostatin = experiment: mRNA expression level by RT-PCR in myotubes; assay type: cell-based, mouse; conditions: ethyl vanillin with dexamethasone vs dexamethasone control
Method: as §1, §2

[5] = system: animal model with high-fat-diet-induced muscle loss; experiment: Grip test in mice fed a high-fat diet; assay type: in vivo, C57BL/6N mice; conditions: 0.2% ethyl vanillin in high-fat diet, week 10
Method: A normal diet group (Chow) was fed commercial rodent chow. Ethyl vanillin was purchased from Sigma-Aldrich. [table] To measure the grip strength of mice, grip strength was measured using four feet of the mice at week 10 of breeding. A force (N) for mice to hold a wire mesh was measured a total of five times using a grip strength measurer equipped with a wire mesh (20×10 cm) (Daejong Instrument Industry Co., Ltd., Korea), and a rest period of 1 minute or longer was given between measurements. Experimental results were obtained by dividing the measured force (N) by body weight (kg). The statistical analysis of all data was performed using the Statistical Package for the Social Sciences (SPSS version 21.0, IBM, Armonk, N.Y., USA), and analysis values were expressed as mean±SEM, and a significant difference between groups was verified by ANOVA.

p-4E-BP1 protein = experiment: Protein expression level by Western blotting in myotubes; assay type: cell-based, mouse; conditions: ethyl vanillin with dexamethasone vs dexamethasone control
Method: (§3) After completing the incubation of all experimental groups and the control, the media were removed and a lysis buffer was added to each well to lyse the cells. As the lysis buffer, a 100 mM Tris-HCl buffer solution (pH 7.4) containing 5 mM EDTA, 50 mM sodium pyrophosphate, 50 mM NaF, 100 mM orthovanadate, 1% Triton X-100, 1 mM phenylmethanesulfonyl fluoride (PMSF), […] of aprotinin, 1 μg/mL of pepstatin A, and 1 μg/mL of leupeptin was used. After lysing the cells, the lysates were obtained, and then centrifuged at 1,300×g and 4° C. for 20 minutes, and then the middle layer was taken as a protein layer in the cell extract. For the protein layer, the concentrations of proteins were quantified by the Bradford method. 40 μg of the quantified proteins were electrophoresed by SDS-PAGE, and then the separated proteins were transferred to nitrocellulose membranes (Amersham, Buckinghamshire, UK). Then, the membranes were washed three times for 10 minutes using a Tris-buffered saline and Tween 20 solution (TBS-T), followed by blocking using 10% skim milk for 60 minutes. […] Bands visualized on the X-ray film were scanned and quantified using Quantity One analysis software (Bio-Rad).

p-p70S6K1 protein = experiment: as above; assay type: cell-based, mouse; conditions: ethyl vanillin with dexamethasone vs dexamethasone control
Method: as §3

## CCOc1cc(C=O)ccc1O [ethyl vanillin, 3-ethoxy-4-hydroxybenzaldehyde]
[1]; 100 μM ethyl vanillin along with 50 μM dexamethasone, 48 hours, C2C12 myotubes
  increase in thickness of myotubes compared to reduction caused by dexamethasone: 49%
[1]; treated with ethyl vanillin, vs dexamethasone
  number of myotubes of mouse myoblasts reduced by dexamethasone: significantly increased
[2]; chloroform
  solubility in chloroform: soluble
[2]; ethanol
  solubility in ethanol: soluble
[2]; water
  solubility in water: insoluble
[3]
  increase in holding impulse (hanging time x body weight) vs high-fat diet: 147%
[4]
  increase in fiber diameter of the tibialis anterior vs high-fat diet: 57%
MaFbx/atrogin 1
  expression of MaFbx/atrogin 1 (mRNA): significantly reducing; also recorded: significantly reduces
MuRF1
  expression of MuRF1 (mRNA): significantly reducing; also recorded: significantly reduces
Myostatin
  expression of Myostatin (mRNA): significantly reducing
[5]
  increase in grip strength (force/body weight) vs high-fat diet: 27%
p-4E-BP1 protein
  amount of p-4E-BP1 protein: significantly increases
p-p70S6K1 protein
  amount of p-p70S6K1 protein: significantly increases
